We go through four compounds from US9611275B2 (priority 2012, dated 2017).

One series deals with LLC-PK1 cells. Put plainly: Assay for determination of apparent permeability (Papp), bi-directional transport. The note with it: comparative compounds described in PCT/US11/059668; LLC-PK1 cells.
The next series addresses human O-GlcNAcase (Homo sapiens (Human), UniProt O60502). Put plainly: biochemical. The note with it: read-out: OGA KI. Format: biochemical.
Series [1] is described as follows: Assay for determination of apparent permeability (Papp), bi-directional transport. The note with it: pig, LLC-PK1.
The mark [2] stands for this setting: comparative compounds described in PCT/US11/059668.

Each structure is given as a SMILES string. pKi: −log10 of the molar value. Like-named read-outs stand apart in the source and are kept apart here. Where only a bound is given, the exact number is not on record here.

Chain of human O-GlcNAcase (O60502 whole entry): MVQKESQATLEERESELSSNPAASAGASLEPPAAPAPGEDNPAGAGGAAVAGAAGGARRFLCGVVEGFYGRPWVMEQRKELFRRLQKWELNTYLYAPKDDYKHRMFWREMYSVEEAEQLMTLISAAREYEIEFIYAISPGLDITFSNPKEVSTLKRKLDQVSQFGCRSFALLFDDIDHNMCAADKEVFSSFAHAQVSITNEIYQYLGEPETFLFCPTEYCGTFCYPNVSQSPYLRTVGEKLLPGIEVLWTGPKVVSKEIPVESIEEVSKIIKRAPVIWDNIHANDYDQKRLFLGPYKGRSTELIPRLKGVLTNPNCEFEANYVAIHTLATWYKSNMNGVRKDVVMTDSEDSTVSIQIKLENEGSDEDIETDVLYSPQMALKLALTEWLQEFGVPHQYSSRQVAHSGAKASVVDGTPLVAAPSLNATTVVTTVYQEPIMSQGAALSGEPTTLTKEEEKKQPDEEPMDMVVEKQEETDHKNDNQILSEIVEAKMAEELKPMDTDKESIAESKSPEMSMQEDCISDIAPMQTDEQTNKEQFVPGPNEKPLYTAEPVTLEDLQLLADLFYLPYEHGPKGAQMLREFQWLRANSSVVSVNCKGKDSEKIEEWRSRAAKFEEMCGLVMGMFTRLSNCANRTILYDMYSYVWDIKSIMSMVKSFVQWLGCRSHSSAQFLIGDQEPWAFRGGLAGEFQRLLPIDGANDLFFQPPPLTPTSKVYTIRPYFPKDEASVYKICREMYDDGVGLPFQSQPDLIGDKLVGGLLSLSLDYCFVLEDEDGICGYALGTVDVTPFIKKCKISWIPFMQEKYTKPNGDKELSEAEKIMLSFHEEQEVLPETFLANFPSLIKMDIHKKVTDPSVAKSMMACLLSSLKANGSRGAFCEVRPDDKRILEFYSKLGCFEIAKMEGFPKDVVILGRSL

With `CO[C@@H](C)[C@H]1O[C@@H]2SC(N(C)C)=N[C@@H]2[C@@H](O)[C@@H]1O` [Example 11, (3aR,5S,6S,7R,7aR)-2-(dimethylamino)-5-((S)-1-methoxyethyl)-5,6,7,7a-tetrahydro-3aH-pyrano[3,2-d]thiazole-6,7-diol], in the series on LLC-PK1 cells, the “Papp (X10-6 cm/sec)” value is 1.6 X10-6 cm/sec.
`CN(C)C1=N[C@@H]2[C@@H](O)[C@H](O)[C@@H]([C@H](OCc3ccccc3F)C(F)(F)F)O[C@@H]2S1` [Example 62, (3aR,5S,6S,7R,7aR)-2-(dimethylamino)-5-((S)-2,2,2-trifluoro-1-(2-fluorobenzyloxy)ethyl)-5,6,7,7a-tetrahydro-3aH-pyrano[3,2-d]thiazole-6,7-diol]: on human O-GlcNAcase, the negative-log Ki (pKi) is 9.02. Also, the “Papp (X10-6 cm/sec)” value with LLC-PK1 cells is given as 1.7 X10-6 cm/sec. The Papp at 3 h, 1 μM in series [1] was found to be 31.1 ×10⁻⁶ cm/s.
On to `CNC1=N[C@@H]2[C@@H](O)[C@H](O)[C@@H]([C@@H](OCc3ccc(Cc4ccccc4)cc3)C(F)(F)F)O[C@@H]2S1` [Example 95, (3aR,5S,6S,7R,7aR)-5-((R)-1-(4-benzylbenzyloxy)-2,2,2-trifluoroethyl)-2-(methylamino)-5,6,7,7a-tetrahydro-3aH-pyrano[3,2-d]thiazole-6,7-diol], for which the pKi at human O-GlcNAcase (setting [2]) is 9.80. For the same compound, the “Papp (X10-6 cm/sec)” value in the series on LLC-PK1 cells is given as <1.0 X10-6 cm/sec.
Turning to `CNC1=N[C@@H]2[C@@H](O)[C@H](O)[C@@H]([C@H](C)OC)O[C@@H]2S1` [Example 111, (3aR,5S,6S,7R,7aR)-5-((S)-1-methoxyethyl)-2-(methylamino)-5,6,7,7a-tetrahydro-3aH-pyrano[3,2-d]thiazole-6,7-diol], the pKi at human O-GlcNAcase (setting [2]) is 8.37. Also, the “Papp (X10-6 cm/sec)” value in the series on LLC-PK1 cells is reported as 2.7 X10-6 cm/sec.

What is called pKi is the negative decadic logarithm of the Ki, by convention in mol/L. A word on the Papp: it is a coefficient for how fast a substance crosses the barrier.
